The source made the active and inactive calls. The rule behind the calls is not given here.
What was measured:
A549 [1] = assay: Cytotoxicity against human A549 cells assessed as decrease in cell viability at 10 to 100 uM after 48 hrs by MTT assay; assay type: functional, cell-based
A549 [2] = assay: Cytotoxicity against human A549 cells assessed as decrease in cell viability at 25 to 100 uM after 48 hrs by SRB assay; assay type: functional, cell-based
[3] = target: Signal transducer and activator of transcription 3 (Homo sapiens, UniProt P40763); assay: Inhibition of STAT3 (unknown origin) assessed as reduction in STAT3-DNA binding
Chain of Signal transducer and activator of transcription 3 (P40763 whole entry): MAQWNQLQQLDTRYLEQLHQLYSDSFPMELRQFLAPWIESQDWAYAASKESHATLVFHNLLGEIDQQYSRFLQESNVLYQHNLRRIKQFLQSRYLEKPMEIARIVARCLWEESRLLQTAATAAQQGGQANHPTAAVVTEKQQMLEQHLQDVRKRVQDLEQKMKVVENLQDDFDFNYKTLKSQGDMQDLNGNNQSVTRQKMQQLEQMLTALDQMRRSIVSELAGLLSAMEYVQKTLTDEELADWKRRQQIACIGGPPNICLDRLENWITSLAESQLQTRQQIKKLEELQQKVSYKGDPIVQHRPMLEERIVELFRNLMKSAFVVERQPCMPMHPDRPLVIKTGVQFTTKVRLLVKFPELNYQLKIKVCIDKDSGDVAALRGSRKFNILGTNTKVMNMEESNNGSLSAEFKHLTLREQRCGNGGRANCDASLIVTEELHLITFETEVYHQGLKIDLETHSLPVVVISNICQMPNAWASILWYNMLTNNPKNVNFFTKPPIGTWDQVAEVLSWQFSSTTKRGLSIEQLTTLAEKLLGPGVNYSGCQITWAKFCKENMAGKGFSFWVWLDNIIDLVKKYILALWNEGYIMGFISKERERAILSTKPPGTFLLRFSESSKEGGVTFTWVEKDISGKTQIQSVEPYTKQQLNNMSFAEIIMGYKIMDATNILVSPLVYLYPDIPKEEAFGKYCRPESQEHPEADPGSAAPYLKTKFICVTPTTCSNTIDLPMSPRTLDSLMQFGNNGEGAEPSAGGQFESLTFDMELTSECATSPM

A549 [4] = assay: Cytotoxicity against human A549 cells assessed as decrease in cell viability at 10 to 100 uM after 48 hrs by SRB assay; assay type: functional, cell-based; conditions: for EC50: A549, 48 h
[5] = Growth inhibition of human U266 cells; assay type: functional, cell-based; conditions: U-266

SMILES | Activity (A549 [1]) | Activity (A549 [2]) | IC50 [3] [µM] | Activity (A549 [4]) | EC50 (A549 [4]) [µM] | EC50 [5] [µM]
C=C1C2=C(C(=O)N1OC)[C@H](O)[C@@](C)(O)[C@H](CCCCC)O2 | Active | Active | 610 | Dose-dependent effect | 46 | 6.7
C=C1C2=C(C(=O)N1OC)[C@H](OC(C)=O)[C@@](C)(O)[C@H](CCCCC)O2 | Active | Active |  | Dose-dependent effect | 49 | 
CCCCC[C@@H]1OC2=C(C(=O)NC2(COC)OC)[C@H](O)[C@@]1(C)O (some centres undefined) | inactive |  |  | inactive |  | 
C=C1C2=C(C(=O)N1OC)[C@H](OC(=O)CCl)[C@@](C)(O)[C@H](CCCCC)O2 | Active | Active |  | Dose-dependent effect | 33 | 
CO[C@@]12[C@H](COC(N)=O)C3=C(C(=O)C(C)=C(N)C3=O)N1C[C@@H]1N[C@@H]12 [MITOMYCIN] |  |  |  |  | 5.2 | 
CCCCC[C@@H]1OC(/C(C)=N/OC)=C(C(=O)O)[C@H](O)[C@@]1(C)O | inactive |  |  | inactive |  | 
